Data reported in patent publication US8394843B2, “Substituted isoindoles as glucokinase activators” (Takeda California, Inc., priority 2006, dated 2013).

Molecular target: T1, glucokinase (GK) (Homo sapiens, UniProt P35557)
T1 construct: I.D. No. 1 corresponds to residues 12-465 of glucokinase; made in house; host or cells: E. coli DH10b-T1r
T1 sequence (P35557 with tags, fused parts or gaps isoform P35557-2): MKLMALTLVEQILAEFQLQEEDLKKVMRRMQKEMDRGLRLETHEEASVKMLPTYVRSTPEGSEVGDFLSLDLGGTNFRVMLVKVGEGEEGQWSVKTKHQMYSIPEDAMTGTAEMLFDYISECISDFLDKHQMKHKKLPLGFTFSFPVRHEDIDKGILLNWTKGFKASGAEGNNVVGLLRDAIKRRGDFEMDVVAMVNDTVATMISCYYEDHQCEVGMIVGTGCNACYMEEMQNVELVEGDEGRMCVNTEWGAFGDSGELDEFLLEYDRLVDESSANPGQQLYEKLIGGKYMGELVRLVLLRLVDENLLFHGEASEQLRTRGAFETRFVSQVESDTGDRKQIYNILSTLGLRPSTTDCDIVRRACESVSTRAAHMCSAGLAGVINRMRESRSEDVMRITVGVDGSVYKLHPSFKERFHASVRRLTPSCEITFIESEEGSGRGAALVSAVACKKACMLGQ
Test: enzymatic glucokinase activity assay (ATP consumption, KinaseGlo luminescence)
Format: biochemical
Settings: 5 mM Glucose, 5 μM ATP; for Emax: calculated maximal gain in GK enzyme activity at a saturating concentration of the compound, read-out: % ACTmax; for EC50: negative log of Kact, the concentration that displays 50% of the maximal increase in GK activity, 60 min at room temperature, read-out: pKact
Text: The activity of compounds as glucokinase activators may be assayed in vitro, in vivo or in a cell line. Provided below is an enzymatic glucokinase activity assay.
Purified glucokinase may be obtained as follows. DNA encoding residues 12-465 of the full-length sequence of the human enzyme may be amplified by PCR and cloned into the HindIII and EcoRI sites of pFLAG-CTC (Sigma). SEQ. I.D. No. 1 corresponds to residues 12-465 of glucokinase.
The expression of recombinant glucokinase protein may be carried out by transformation and growth of DH10b-T1r E. coli cells incorporating the (pFLAG-CTC) plasmid in LB media. Protein expression can be induced in this system by the addition of IPTG to the culture medium.
Recombinant protein may be isolated from cellular extracts by passage over Sepharose Q Fast Flow resin (Pharmacia). This partially purified GK extract may then be further purified by a second passage over Poros HQ10 (Applied Biosystems). The purity of GK may be determined on denaturing SDS-PAGE gel. Purified GK may then be concentrated to a final concentration of 20.0 mg/ml. After flash freezing in liquid nitrogen, the proteins can be stored at −78° C. in a buffer containing 25 mM TRIS-HCl pH 7.6, 50 mM NaCl, and 0.5 mM TCEP.
The activation properties of compounds for GK may be determined using a black 384-well-plate format under the following reaction conditions: 25 mM Hepes pH 7.2, 25 mM NaCl, 10 mM MgCl2, 0.01% Brij35, 1 mM DTT, 5 μM ATP, 5 mM Glucose 2% DMSO. The amount of ATP consumed may be determined quantitatively by addition of equal volume of luciferase reagent (luciferase+beetle luciferin—KinaseGlo Luminescent Kinase Assay kit from Promega). The luminescence intensity may be measured by using the Analyst HT from LJL Biosystems.
The assay reaction may be initiated as follows: 4 μl of substrate mixture (12.5 μM ATP and 12.5 mM Glucose) was added to each well of the plate, followed by the addition of 2 μl of activator (2 fold serial dilutions for 11 data points for each activator) containing 10% DMSO. 4 μL of 1.25 nM GK solution may be added to initiate the reaction. The reaction mixture may then be incubated at room temperature for 60 min, and quenched and developed by addition of 10 μL of luciferase reagent. Luminescence intensities of the resulting reaction mixtures may be measured after a 10 min incubation at room temperature. The luminescence intensity may be measured by using the Analyst HT from LJL Biosystems.
pKact and % ACTmax values may be calculated by non-linear curve fitting of the compound concentrations and luminescence intensities to a standard inhibition/activation equation. […] “pKact” is the negative log of the Kact value; i.e., −log10 [Kact]. % Actmax represents the calculated maximal gain in GK enzyme activity at a saturating concentration of the compound. pKact and % ACTmax values for select compounds of the present invention are given in Table 1.

Structure (SMILES) | Emax | EC50
CC(C)CC(C(=O)Nc1nccs1)n1cc2ccccc2n1 (stereo not drawn) [Example 2, 2-(2H-indazol-2-yl)-4-methyl-N-(thiazol-2-yl)pentanamide] | > 60% | ≥ 31.6 µM
CC(C)CC(C(=O)Nc1nccs1)n1cc2cc(F)ccc2n1 (stereo not drawn) [Example 3, 2-(5-fluoro-2H-indazol-2-yl)-4-methyl-N-(thiazol-2-yl)pentanamide] | 50 to 60% | ≥ 31.6 µM
COc1ccc2nn(C(CC(C)C)C(=O)Nc3nccs3)cc2c1 (stereo not drawn) [Example 6, 2-(5-methoxy-2H-indazol-2-yl)-4-methyl-N-(thiazol-2-yl)pentanamide] | 50 to 60% | ≥ 31.6 µM
CC(C)CC(C(=O)Nc1nccs1)n1cc2cc(O)ccc2n1 (stereo not drawn) [Example 7, 2-(5-hydroxy-2H-indazol-2-yl)-4-methyl-N-(thiazol-2-yl)pentanamide] | > 60% | ≥ 31.6 µM
Cc1c2cc(F)ccc2nn1C(CC(C)C)C(=O)Nc1nccs1 (stereo not drawn) [Example 9, 2-(5-fluoro-3-methyl-2H-indazol-2-yl)-4-methyl-N-(thiazol-2-yl)pentanamide] | 50 to 60% | 12.6 to 25.1 µM
N=C1c2cc(F)ccc2CN1C(CC1CCCCC1)C(=O)Nc1nccs1 (stereo not drawn) [Example 12, 3-cyclohexyl-2-(6-fluoro-1-iminoisoindolin-2-yl)-N-(thiazol-2-yl)propanamide] | > 60% | 12.6 to 25.1 µM
CC(C)CC(C(=O)Nc1ccccn1)N1C(=O)c2ccccc2C1=O (stereo not drawn) [Example 14, 2-(1,3-dioxoisoindolin-2-yl)-4-methyl-N-(pyridin-2-yl)pentanamide] | > 60% | 12.6 to 25.1 µM

The remaining lines, values ahead:

Emax | EC50 | Structure (SMILES)
< 50% | ≤ 10 µM | CC(C)CC(C(=O)Nc1nccs1)n1cc2ccc([N+](=O)[O-])cc2n1 (stereo not drawn) [Example 4, 4-methyl-2-(6-nitro-2H-indazol-2-yl)-N-(thiazol-2-yl)pentanamide]
< 50% | 12.6 to 25.1 µM | CC(C)CC(C(=O)Nc1nccs1)n1cc2ccc(S(C)(=O)=O)cc2n1 (stereo not drawn) [Example 5, 4-methyl-2-(6-(methylsulfonyl)-2H-indazol-2-yl)-N-(thiazol-2-yl)pentanamide]
< 50% | ≤ 10 µM | Cc1c2ccccc2nn1C(CC(C)C)C(=O)Nc1nccs1 (stereo not drawn) [Example 8, 4-methyl-2-(3-methyl-2H-indazol-2-yl)-N-(thiazol-2-yl)pentanamide]
> 60% | ≤ 10 µM | N=C1c2ccccc2CN1C(CC1CCCCC1)C(=O)Nc1nccs1 (stereo not drawn) [Example 11, 3-cyclohexyl-2-(1-iminoisoindolin-2-yl)-N-(thiazol-2-yl)propanamide]
> 60% | ≤ 10 µM | CC(C)CC(C(=O)Nc1nccs1)N1C(=O)c2ccccc2C1=O (stereo not drawn) [Example 13, 2-(1,3-dioxoisoindolin-2-yl)-4-methyl-N-(thiazol-2-yl)pentanamide]
